This experiment concerns Nanog gene expression in mouse ES cells constitutively expressing Nanog-Eluc. The experiment can be described thus: Luminescence imaging of Nanog-Eluc expression in ES cell colonies under FGF stimulus and FGF signal inhibitors. The note with it: FGF 10 ng/ml, medium without LIF, before inhibitor addition. It counts as cell-based. From the text: Mouse ES cells used in Example 1-2 were used, which is constitutively expressing Nanog-Eluc. The cells were differentiation-induced with FGF (Fibroblast Growth Factor), and then observed under condition with signal transduction inhibitor. FGF signal is a signal transduction which induces stem cell differentiation, and it has been reported that the stem cell returns from the differentiated state to the undifferentiated state by the action of an inhibitor (T. Kunath et al., Development 134, pp. 2895-2902, 2007). The preparation method of ES cells is in the same manner as in Example 1-2. […]
D-luciferin (manufactured by Promega KK: final concentration of 500 μM) was added for luminescence observation, FGF (FGFβ human, PeproTech Inc.) was added so as to have a final concentration of 10 ng/ml, and then the mouse ES cells were observed using a luminescence microscope LV200 (manufactured by Olympus Corporation). As the luminescence observation conditions, the luminescence images of the mouse ES cells were taken under 55 min exposure at 1 hour intervals, thereby observing Nanog gene expression level. […]
After the time-lapse observation, the captured images were saved, and numerical data was analyzed from the observation images using an image analysis software “AQUACOSMOS (manufactured by Hamamatsu Photonics K.K.)”, and the analyzed numerical data was shown as graph data. […]

The source of these data is patent US20130017570A1, “METHOD FOR MONITORING STATE OF DIFFERENTIATION IN STEM CELL” (OLYMPUS CORPORATION, priority 2010, published 2013).

With “FGF: Fibroblast Growth Factor (FGFβ human, PeproTech Inc.) used for differentiation induction”, the “Nanog expression (luminescence intensity) when adding FGF, expression pattern C colonies” value is “not seen”.
